The test system of test [1] is RKO colon adenocarcinoma cells (RKOp27) arrested by expression of ectopic p27Kip1. Kind of test: Alamar Blue cell viability assay on RKOp27 cells arrested by Ponasterone A-induced p27Kip1 (cell cycle specific mode of action). It is filed as cell-based. The settings on record: Homo sapiens, RKOp27, 72 h, cells arrested by p27Kip1 induced with 10 μM Ponasterone A, 72 hours incubation, read-out: IC50 RKO p27 arrested. The procedure:
To determine the cell cycle specific mode of action, subclones of RKO colon adenocarcinoma cells (RKOp27 or RKOp21 as described by Schmidt et al. in Oncogene 19, 2423-2429; 2000) are seeded into 96 well flat bottom plates at a density of 16000 cells per well in a volume of 50 μl per well in DMEM growth medium with 10% FCS containing 10 μM Ponasterone A. 24 hours after seeding 50 μl each of the compound dilutions in DMEM are added into each well of the 96 well plate. Each compound dilution is tested as quadruplicates. Wells containing untreated control cells are filled with 50 μl DMEM containing 1% DMSO. The cells are then incubated with the substances for 72 hours at 37° C. in a humidified atmosphere containing 5% carbon dioxide. To determine the viability of the cells, 10 μl of an Alamar Blue solution (Biosource) are added and the fluorescence is measured at an extinction of 544 nm and an emission of 590 nm. For the calculation of the cell viability the emission value from untreated cells is set as 100% viability and the emission rates of treated cells are set in relation to the values of untreated cells. Viabilities are expressed as % values. Viability is compared of proliferating cells grown in the absence of the inducer Ponasterone A, versus viability of cells arrested by the expression of ectopic p27Kip1 induced by Ponasterone A. The data of this experimental setting are summarized in table A (2nd column).
A general note: Resazurin is reduced to fluorescent resorufin, in cell work by metabolically active cells.

The test system of test [2] is RKO (RKOp27) human colon adenocarcinoma cells. Kind of test: Alamar Blue cell viability assay, anti-proliferative/cytotoxic activity on proliferating RKOp27 cells. It is filed as cell-based. The settings on record: absence of Ponasterone A, 72 hours incubation, read-out: IC50 RKO p27 proliferating. On the procedure: The anti-proliferative/cytotoxic activity of the compounds described herein, can be tested on subclones of RKO (RKOp27) human colon adenocarcinoma cells (Schmidt et al., Oncogene 19, 2423-2429; 2000) using the Alamar Blue cell viability assay (described in O'Brien et al. Eur J Biochem 267, 5421-5426, 2000). The compounds are dissolved as 20 mM solutions in dimethylsulfoxide (DMSO) and subsequently diluted in semi-logarithmic steps. DMSO dilutions are further diluted 1:100 into Dulbecco's modified Eagle's medium (DMEM) containing 10% fetal calf serum to a final concentration twice as much as the final concentration in the test. RKO subclones are seeded into 96 well flat bottom plates at a density of 4000 cells per well in a volume of 50 μl per well. 24 hours after seeding 50 μl each of the compound dilutions in DMEM are added into each well of the 96 well plate. Each compound dilution is tested as quadruplicates. Wells containing untreated control cells are filled with 50 μl DMEM containing 1% DMSO. The cells are then incubated with the substances for 72 hours at 37° C. in a humidified atmosphere containing 5% carbon dioxide. To determine the viability of the cells, 10 μl of an Alamar Blue solution (Biosource) are added and the fluorescence is measured at an extinction of 544 nm and an emission of 590 nm. For the calculation of the cell viability the emission value from untreated cells is set as 100% viability and the emission rates of treated cells are set in relation to the values of untreated cells. Viabilities are expressed as % values.
The corresponding IC50 values of the compounds for anti-proliferative/cytotoxic activity are determined from the concentration-effect curves.
Representative IC50 values for anti-proliferation/cytotoxicity determined in the aforementioned assay are described in the table A (1st column), in which the numbers of the compound correspond to the numbers of the examples.

For orientation: IC50 means the concentration that inhibits the measured activity by half.

With `N#Cc1c(NC(=O)/C=C/c2ccccc2)sc2c1CCN(C(=O)CCCn1ccnc1)C2` [Example 190, (E)-N-[3-Cyano-6-(4-imidazol-1-yl-butanoyl)-4,5,6,7-tetrahydro-thieno[2,3-c]pyridin-2-yl]-3-phenyl-acrylamide], the 50% inhibitory concentration (IC50) in test [1] is at least 100 µM; in test [2], at most 2 µM.

As to `CCNC(=O)N1CCc2c(sc(NC(=O)/C=C/c3ccccc3)c2C#N)C1` [Example 37, 3-Cyano-2-((E)-phenyl-allanoylamino)-4,7-dihydro-5H-thieno[2,3-c]pyridine-6-carboxylic acid ethylamide], the concentration for half-maximal inhibition (IC50) was over 100 µM in test [1] and at most 2 µM in test [2].

As for `CCCOc1ccccc1/C=C/C(=O)Nc1sc2c(c1C#N)CCN(C(=O)OCC)C2` [Example 99, 3-Cyano-2-[(E)-3-(2-propoxy-phenyl)-allanoylamino]-4,7-dihydro-5H-thieno[2,3-c]pyridine-6-carboxylic acid ethyl ester], the IC50 in test [1] was at least 50 µM; in test [2], at most 0.5 µM.

`CCOC(=O)N1CCc2c(sc(NC(=O)/C=C/c3ccc(OCC)cc3)c2C#N)C1` [Example 60, 3-Cyano-2-[(E)-3-(4-ethoxy-phenyl)-allanoylamino]-4,7-dihydro-5H-thieno[2,3-c]pyridine-6-carboxylic acid ethyl ester]: the 50% inhibitory concentration (IC50) in test [1] is at least 100 µM; in test [2] it was at most 2 µM.

In the case of `N#Cc1c(NC(=O)/C=C/c2ccccc2)sc2c1CCN(C(=O)Cc1c[nH]c3ccccc13)C2` [Example 182, (E)-N-[3-Cyano-6-(2-1H-indol-3-yl-ethanoyl)-4,5,6,7-tetrahydro-thieno[2,3-c]pyridin-2-yl]-3-phenyl-acrylamide], the 50% inhibitory concentration (IC50) in test [1] was at least 50 µM; in test [2], at most 0.5 µM.

Turning to `CCOC(=O)N1CCc2c(sc(NC(=O)/C=C/c3ccccc3OC(F)(F)F)c2C#N)C1` [Example 233, 3-Cyano-2-[(E)-3-(2-trifluoromethoxy-phenyl)-allanoylamino]-4,7-dihydro-5H-thieno[2,3-c]pyridine-6-carboxylic acid ethyl ester], the half-maximal inhibitory concentration (IC50) is at least 50 µM in test [1] and at most 0.5 µM in test [2].

`CCOC(=O)COC(=O)N1CCc2c(sc(NC(=O)/C=C/c3cccnc3)c2C#N)C1` [Example 161, 3-Cyano-2-((E)-3-pyridin-3-yl-allanoylamino)-4,7-dihydro-5H-thieno[2,3-c]pyridine-6-carboxylic acid ethoxycarbonylmethyl ester]: the IC50 in test [1] was at least 100 µM; in test [2] it was at most 2 µM.

For `CC1(C)OCC(COC(=O)N2CCc3c(sc(NC(=O)/C=C/c4cccnc4)c3C#N)C2)O1` (centres unmarked) [Example 164, 3-Cyano-2-((E)-3-pyridin-3-yl-allanoylamino)-4,7-dihydro-5H-thieno[2,3-c]pyridine-6-carboxylic acid 2,2-dimethyl-[1,3]dioxolan-4-ylmethyl ester], the half-maximal inhibitory concentration (IC50) in test [1] was at least 100 µM; in test [2] it was at most 2 µM.

Turning to `COc1ccccc1/C=C/C(=O)Nc1sc2c(c1C#N)CCN(C(=O)OCc1ccccn1)C2` [Example 138, 3-Cyano-2-[(E)-3-(2-methoxy-phenyl)-allanoylamino]-4,7-dihydro-5H-thieno[2,3-c]pyridine-6-carboxylic acid pyridin-2-ylmethyl ester], the IC50 is at least 100 µM in test [1] and at most 2 µM in test [2].

Turning to `CCOC(=O)N1CCc2c(sc(NC(=O)/C=C/c3ccc(-c4ccccc4)s3)c2C#N)C1` [Example 85, 3-Cyano-2-[(E)-3-(5-phenyl-thiophen-2-yl)-allanoylamino]-4,7-dihydro-5H-thieno[2,3-c]pyridine-6-carboxylic acid ethyl ester], the half-inhibitory concentration (IC50) in test [1] is at least 100 µM; in test [2], at most 2 µM.

For `N#Cc1c(NC(=O)/C=C/c2cccnc2)sc2c1CCN(C(=O)Oc1ccccn1)C2` [Example 154, 3-Cyano-2-((E)-3-pyridin-3-yl-allanoylamino)-4,7-dihydro-5H-thieno[2,3-c]pyridine-6-carboxylic acid pyridin-2-yl ester], the IC50 in test [1] was at least 100 µM; in test [2] it was at most 2 µM.

With `N#Cc1c(NC(=O)/C=C/c2ccco2)sc2c1CCN(C(=O)CCc1cccnc1)C2` [Example 229, (E)-N-[3-Cyano-6-(3-pyridin-3-yl-propanoyl)-4,5,6,7-tetrahydro-thieno[2,3-c]pyridin-2-yl]-3-furan-2-yl-acrylamide], the results for the half-inhibitory concentration (IC50) in test [1] and in test [2] were at least 100 µM and at most 2 µM, respectively.

For the compound `CN(C)C(=O)CCC(=O)N1CCc2c(sc(NC(=O)/C=C/c3ccccc3)c2C#N)C1` [Example 178, 4-[3-Cyano-2-((E)-3-phenyl-allanoylamino)-4,7-dihydro-5H-thieno[2,3-c]pyridin-6-yl]-N,N-dimethyl-4-oxo-butyramide], the IC50 in test [1] is at least 100 µM; in test [2], at most 2 µM.

With `N#Cc1c(NC(=O)/C=C/c2ccccc2)sc2c1CCN(C(=O)CO)C2` [Example 187, (E)-N-[3-Cyano-6-(2-hydroxy-ethanoyl)-4,5,6,7-tetrahydro-thieno[2,3-c]pyridin-2-yl]-3-phenyl-acrylamide], the results for the IC50 in test [1] and in test [2] were at least 100 µM and at most 2 µM, respectively.

Turning to `CCSC(=O)N1CCc2c(sc(NC(=O)/C=C/c3ccccc3)c2C#N)C1` [Example 35, 3-Cyano-2-((E)-3-phenyl-allanoylamino)-4,7-dihydro-5H-thieno[2,3-c]pyridine-6-carbothioic acid S-ethyl ester], the concentration for half-maximal inhibition (IC50) in test [1] is over 100 µM; in test [2], at most 2 µM.

Regarding `CCOC(=O)N1CCc2c(sc(NC(=O)/C=C/c3cc(OC)ccc3OC)c2C#N)C1` [Example 102, 3-Cyano-2-[(E)-3-(2,5-dimethoxy-phenyl)-allanoylamino]-4,7-dihydro-5H-thieno[2,3-c]pyridine-6-carboxylic acid ethyl ester], the values for the IC50 in test [1] and in test [2] were at least 100 µM and at most 2 µM, respectively.

On to `CCOC(=O)N1CCc2c(sc(NC(=O)/C=C/c3ccccc3N3CCOCC3)c2C#N)C1` [Example 88, 3-Cyano-2-[(E)-3-(2-morpholin-4-yl-phenyl)-allanoylamino]-4,7-dihydro-5H-thieno[2,3-c]pyridine-6-carboxylic acid ethyl ester], for which the values for the IC50 in test [1] and in test [2] were at least 50 µM and at most 0.5 µM, respectively.

`N#Cc1c(NC(=O)/C=C/c2ccccc2)sc2c1CCN(C(=O)CCCc1c[nH]c3ccccc13)C2` [Example 172, (E)-N-[3-Cyano-6-(4-1H-indol-3-yl-butanoyl)-4,5,6,7-tetrahydro-thieno[2,3-c]pyridin-2-yl]-3-phenyl-acrylamide]: the half-maximal inhibitory concentration (IC50) in test [1] is at least 100 µM; in test [2], at most 2 µM.

With `CCSC(=O)N1CCc2c(sc(NC(=O)/C=C/c3ccccc3OC)c2C#N)C1` [Example 50, 3-Cyano-2-[(E)-3-(2-methoxy-phenyl)-allanoylamino]-4,7-dihydro-5H-thieno[2,3-c]pyridine-6-carbothioic acid S-ethyl ester], the IC50 in test [1] was at least 100 µM; in test [2], at most 2 µM.

As for `N#Cc1c(NC(=O)/C=C/c2ccccc2)sc2c1CCN(C(=O)n1ccnc1)C2` [Example 53, (E)-N-[3-Cyano-6-(1-imidazol-1-yl-methanoyl)-4,5,6,7-tetrahydro-thieno[2,3-c]pyridin-2-yl]-3-phenyl-acrylamide], the concentration for half-maximal inhibition (IC50) was at least 100 µM in test [1] and at most 2 µM in test [2].

On to `CCOC(=O)N1CCc2c(sc(NC(=O)/C=C/c3ccc(Cl)o3)c2C#N)C1` [Example 78, 2-[(E)-3-(5-Chloro-furan-2-yl)-allanoylamino]-3-cyano-4,7-dihydro-5H-thieno[2,3-c]pyridine-6-carboxylic acid ethyl ester], for which the IC50 in test [1] is at least 100 µM; in test [2] it was at most 2 µM.

Consider `CCOc1ccccc1/C=C/C(=O)Nc1sc2c(c1C#N)CCN(C(=O)OCCOC)C2` [Example 235, 3-Cyano-2-[(E)-3-(2-ethoxy-phenyl)-allanoylamino]-4,7-dihydro-5H-thieno[2,3-c]pyridine-6-carboxylic acid 2-methoxy-ethyl ester], for which the IC50 is at least 100 µM in test [1] and at most 2 µM in test [2].

The record behind these values is patent US7723523B2, “Tetrahydropyridothiophenes” (4SC AG, priority 2004, dated 2010).
